Columns and labels:
Format in all cases: cell-based, human
[1] = tested on: Breast carcinoma tumor disks; experiment: in vitro angiogenesis assay, tumor disks in fibrin-thrombin clot
From the text: (§1) It is submitted that at least part of the effect observed with the compounds of formula I on the diseases mentioned herein are resulting from the inhibition of angiogenesis. […] It is known that human vein disks incorporated into a 0.3% fibrin-thrombin clot will develop angiogenic vessel growth from the cut edge of the vessel disk.
(§2) METHODS: Tumor disks (2 mm in diameter) from seven fresh surgical specimens are incorporated into fibrin-thrombin clots overlayed with nutrient medium containing 20% fetal bovine serum. The fragments are allowed to become angiogenic and on day 18, nutrient medium or nutrient medium containing a compound of formula I, is added. Tumor disks are visually assessed over time to determine the percent of wells that initiated an angiogenic response (% I). Neovessel growth, density, and length are graded at intervals using a semi-quantitative visual neovessel growth-rating scheme [angiogenic index (AI), 0-16 scale]. Statistical significance of the results is tested using comparison of two proportions for % initiation and t-tests for the angiogenic index (p<0.05 considered significant*).

[2] = tested on: Bronchial carcinoid tumor disks; experiment: as above
From the text: as §1, §2

[3] = tested on: Midgut carcinoid (met) tumor disks; experiment: as above
From the text: as §1, §2

[4] = tested on: Midgut carcinoid tumor disks; experiment: as above
From the text: as §1, §2

[5] = tested on: Renal cell carcinoma tumor disks; experiment: as above
From the text: as §1, §2

[6] = tested on: Thymic carcinoid tumor disks; experiment: as above
From the text: as §1, §2

[7] = tested on: Thyroid cancer tumor disks; experiment: as above; details: Thyroid cancer (identified as a parathyroid adenoma)
From the text: as §1, §2

[8] = tested on: Tumor disks from seven fresh surgical specimens; experiment: in vitro angiogenesis assay, mean over all tumors; details: Mean +/− SEM of seven tumors; for % Initiation % ↓ / Al (0-16) % ↓: 10^−8 M, decrease vs control
From the text: as §1, §2

[9] = percent of wells that initiated an angiogenic response

With C/C(=C\c1csc(C)n1)[C@@H]1C[C@@H]2O[C@]2(C)CCC[C@H](C)[C@H](O)[C@@H](C)C(=O)C(C)(C)[C@@H](O)CC(=O)O1 [epothilone B] the “% Initiation % ↓” value ([1]; 10^−8 M, decrease vs control) was 94%, the “Al (0-16) % ↓” value ([1]; 10^−8 M, decrease vs control) was 91% and the “Al (0-16) EpoB 10^−8 M” value ([1]; angiogenic index, 0-16 scale) was 1. For the same compound, the “% Initiation EpoB 10^−8 M” value [1, 9] was 3.3%, the “% Initiation % ↓” value ([2]; 10^−8 M, decrease vs control) was 12% and the “Al (0-16) % ↓” value ([2]; 10^−8 M, decrease vs control) was 40%. For the same compound, the “Al (0-16) EpoB 10^−8 M” value ([2]; angiogenic index, 0-16 scale) was 6.1, the “% Initiation EpoB 10^−8 M” value [2, 9] was 37% and the “% Initiation % ↓” value ([3]; 10^−8 M, decrease vs control) was 100%. For the same compound, the “Al (0-16) % ↓” value ([3]; 10^−8 M, decrease vs control) was 100%, the “Al (0-16) EpoB 10^−8 M” value ([3]; angiogenic index, 0-16 scale) was 0 and the “% Initiation EpoB 10^−8 M” value [3, 9] was 0%. For the same compound, the “% Initiation % ↓” value ([4]; 10^−8 M, decrease vs control) was 15%, the “Al (0-16) % ↓” value ([4]; 10^−8 M, decrease vs control) was 40% and the “Al (0-16) EpoB 10^−8 M” value ([4]; angiogenic index, 0-16 scale) was 8.2. For the same compound, the “% Initiation EpoB 10^−8 M” value [4, 9] was 20%, the “% Initiation % ↓” value ([5]; 10^−8 M, decrease vs control) was 88% and the “Al (0-16) % ↓” value ([5]; 10^−8 M, decrease vs control) was 80%. The “Al (0-16) EpoB 10^−8 M” value ([5]; angiogenic index, 0-16 scale) was 1, the “% Initiation EpoB 10^−8 M” value [5, 9] was 6.7% and the “% Initiation % ↓” value ([6]; 10^−8 M, decrease vs control) was 40%. The “Al (0-16) % ↓” value ([6]; 10^−8 M, decrease vs control) was 73%, the “Al (0-16) EpoB 10^−8 M” value ([6]; angiogenic index, 0-16 scale) was 2.5 and the “% Initiation EpoB 10^−8 M” value [6, 9] was 3.3%. For the same compound, the “Al (0-16) EpoB 10^−8 M” value ([7]; angiogenic index, 0-16 scale) was 2.1, the “% Initiation EpoB 10^−8 M” value [7, 9] was 50% and the “% Initiation % ↓” value ([7]; 10^−8 M, decrease vs control) was 50%. The “Al (0-16) % ↓” value ([7]; 10^−8 M, decrease vs control) was 85%, the “Al (0-16) EpoB 10^−8 M” value ([8]; angiogenic index, 0-16 scale) was 3 ± 1.1 and the “% Initiation EpoB 10^−8 M” value [8, 9] was 17.2 ± 7.4%. For the same compound, the “% Initiation % ↓” value [8] was 60±13.8%, the “Al (0-16) % ↓” value [8] was 73±9% and the “% Initiation % ↓” value ([8]; listed as EpoB) was 60 ± 14%. For the same compound, the “Al (0-16) % ↓” value ([8]; listed as EpoB) was 73 ± 9%.

Reference: patent US20060142354A1, “Use of epothilone derivatives for the treatment of hyperparathyroidism” (priority 2002, published 2006)
